Among the data in ChEMBL document CHEMBL5653615 (J Biol Chem, 2013) are inhibition values, retold here.

Assay [1] concerns the target Cyclin-dependent kinase 1/cyclin B1 (Homo sapiens) (UniProt P06493+P14635). The assay is described as follows: Inhibition of human CDK1/cyclin B at 500 nM by HotSpot assay relative to control. It counts as protein-complex assay.
The target of assay [2] is T1, Serine/threonine-protein kinase Chk1 (Homo sapiens) (UniProt O14757).
T1 sequence (whole entry): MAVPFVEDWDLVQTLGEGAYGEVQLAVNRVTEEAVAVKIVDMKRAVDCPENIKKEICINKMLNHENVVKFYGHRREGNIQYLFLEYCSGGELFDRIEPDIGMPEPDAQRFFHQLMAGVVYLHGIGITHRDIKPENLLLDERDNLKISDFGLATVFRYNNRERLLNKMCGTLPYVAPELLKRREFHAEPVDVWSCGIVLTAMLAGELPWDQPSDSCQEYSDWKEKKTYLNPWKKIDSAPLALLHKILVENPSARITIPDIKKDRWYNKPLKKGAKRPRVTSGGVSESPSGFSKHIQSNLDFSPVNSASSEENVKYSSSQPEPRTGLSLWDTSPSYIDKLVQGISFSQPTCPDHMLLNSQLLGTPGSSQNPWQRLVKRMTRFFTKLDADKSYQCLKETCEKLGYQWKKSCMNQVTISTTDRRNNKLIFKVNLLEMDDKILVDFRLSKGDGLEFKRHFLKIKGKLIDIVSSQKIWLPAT
The assay is described as follows: Inhibition of human CHK1 at 500 nM by HotSpot assay relative to control.

For assay [3], the target named is Tyrosine-protein kinase FRK (Homo sapiens) (UniProt P42685). The assay is described as follows: Inhibition of human FRK at 500 nM by HotSpot assay relative to control.
Assay [4] has as its target Serine/threonine-protein kinase pim-1 (Homo sapiens) (UniProt P11309). The assay is described as follows: Inhibition of human PIM1 at 500 nM by HotSpot assay relative to control.
The target in assay [5] is T2, Serine/threonine-protein kinase D1 (Homo sapiens) (UniProt Q15139).
T2 sequence (whole entry): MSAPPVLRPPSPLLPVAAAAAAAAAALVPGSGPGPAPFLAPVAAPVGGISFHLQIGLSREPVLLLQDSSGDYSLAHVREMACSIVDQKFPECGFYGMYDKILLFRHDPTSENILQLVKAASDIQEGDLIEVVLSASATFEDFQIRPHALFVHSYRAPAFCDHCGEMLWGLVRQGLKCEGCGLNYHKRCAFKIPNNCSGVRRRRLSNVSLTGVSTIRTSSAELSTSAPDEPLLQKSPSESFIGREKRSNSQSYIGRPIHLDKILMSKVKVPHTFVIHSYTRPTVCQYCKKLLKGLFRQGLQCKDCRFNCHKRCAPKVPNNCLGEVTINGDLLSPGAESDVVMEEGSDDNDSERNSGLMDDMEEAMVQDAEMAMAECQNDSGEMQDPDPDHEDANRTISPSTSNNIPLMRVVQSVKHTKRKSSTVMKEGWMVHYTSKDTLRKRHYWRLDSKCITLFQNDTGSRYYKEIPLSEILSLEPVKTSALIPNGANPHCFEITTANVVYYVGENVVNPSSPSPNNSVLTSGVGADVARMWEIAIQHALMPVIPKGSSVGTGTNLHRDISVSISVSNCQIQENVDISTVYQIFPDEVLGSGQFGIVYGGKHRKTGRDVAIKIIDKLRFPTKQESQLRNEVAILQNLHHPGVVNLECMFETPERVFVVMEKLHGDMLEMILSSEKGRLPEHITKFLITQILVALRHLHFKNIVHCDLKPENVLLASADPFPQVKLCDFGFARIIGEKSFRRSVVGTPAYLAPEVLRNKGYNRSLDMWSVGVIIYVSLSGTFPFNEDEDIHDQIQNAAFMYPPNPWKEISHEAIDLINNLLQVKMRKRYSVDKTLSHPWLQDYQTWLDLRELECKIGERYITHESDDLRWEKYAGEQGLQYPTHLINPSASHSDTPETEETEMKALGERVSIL
Kind of assay: Inhibition of human PRKD1 at 500 nM by HotSpot assay relative to control.

Assay [6] addresses Ribosomal protein S6 kinase alpha-6 (Homo sapiens) (UniProt Q9UK32). Kind of assay: Inhibition of human RSK4 at 500 nM by HotSpot assay relative to control.
Assay [7] has as its target T3, Serine/threonine-protein kinase ULK2 (Homo sapiens) (UniProt Q8IYT8).
T3 sequence (whole entry): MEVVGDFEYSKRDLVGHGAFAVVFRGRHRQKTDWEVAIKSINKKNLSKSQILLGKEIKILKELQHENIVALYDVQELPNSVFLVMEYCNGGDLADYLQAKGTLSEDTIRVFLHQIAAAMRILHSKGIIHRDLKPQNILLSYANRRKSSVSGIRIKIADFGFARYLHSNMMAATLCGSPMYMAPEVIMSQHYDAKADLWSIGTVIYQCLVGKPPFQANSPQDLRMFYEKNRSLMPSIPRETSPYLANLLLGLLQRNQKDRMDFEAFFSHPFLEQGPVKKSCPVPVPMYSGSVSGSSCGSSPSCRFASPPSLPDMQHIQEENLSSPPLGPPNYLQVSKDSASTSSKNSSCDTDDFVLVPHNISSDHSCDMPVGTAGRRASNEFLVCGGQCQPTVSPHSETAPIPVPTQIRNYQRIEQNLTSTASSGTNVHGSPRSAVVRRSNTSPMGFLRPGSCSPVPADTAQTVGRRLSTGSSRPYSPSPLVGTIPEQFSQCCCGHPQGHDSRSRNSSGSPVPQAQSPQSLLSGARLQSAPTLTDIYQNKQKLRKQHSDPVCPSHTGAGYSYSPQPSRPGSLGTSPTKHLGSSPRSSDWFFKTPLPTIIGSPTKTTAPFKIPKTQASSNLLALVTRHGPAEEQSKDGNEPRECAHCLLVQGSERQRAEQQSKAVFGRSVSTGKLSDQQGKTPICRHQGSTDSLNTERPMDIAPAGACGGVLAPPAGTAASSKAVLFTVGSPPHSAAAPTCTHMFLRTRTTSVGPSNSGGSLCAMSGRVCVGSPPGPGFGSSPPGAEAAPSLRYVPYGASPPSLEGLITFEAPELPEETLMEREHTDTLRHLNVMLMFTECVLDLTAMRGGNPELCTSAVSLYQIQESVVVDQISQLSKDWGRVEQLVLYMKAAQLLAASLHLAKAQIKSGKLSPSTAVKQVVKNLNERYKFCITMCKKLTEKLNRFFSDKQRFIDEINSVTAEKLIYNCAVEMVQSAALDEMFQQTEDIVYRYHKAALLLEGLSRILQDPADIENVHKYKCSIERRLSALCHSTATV
The assay is described as follows: Inhibition of human ULK2 at 500 nM by HotSpot assay relative to control.

The target of assay [8] is Mitogen-activated protein kinase 1 (Homo sapiens) (UniProt P28482). Conditions: dose 500.0 nM.
Chain of Mitogen-activated protein kinase 1 (Homo sapiens) (P28482 whole entry): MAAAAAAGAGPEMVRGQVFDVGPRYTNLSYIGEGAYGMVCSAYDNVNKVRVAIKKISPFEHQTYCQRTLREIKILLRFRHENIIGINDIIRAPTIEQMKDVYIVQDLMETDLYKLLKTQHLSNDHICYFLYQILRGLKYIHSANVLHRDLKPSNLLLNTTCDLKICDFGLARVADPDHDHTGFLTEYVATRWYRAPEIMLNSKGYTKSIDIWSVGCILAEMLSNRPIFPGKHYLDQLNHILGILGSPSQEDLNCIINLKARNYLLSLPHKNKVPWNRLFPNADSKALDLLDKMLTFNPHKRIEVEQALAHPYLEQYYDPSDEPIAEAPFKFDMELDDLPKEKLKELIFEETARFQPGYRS
Description: Inhibition of human ERK2 at 500 nM by HotSpot assay relative to control

Chain of Serine/threonine-protein kinase pim-1 (Homo sapiens) (P11309 whole entry, looked up): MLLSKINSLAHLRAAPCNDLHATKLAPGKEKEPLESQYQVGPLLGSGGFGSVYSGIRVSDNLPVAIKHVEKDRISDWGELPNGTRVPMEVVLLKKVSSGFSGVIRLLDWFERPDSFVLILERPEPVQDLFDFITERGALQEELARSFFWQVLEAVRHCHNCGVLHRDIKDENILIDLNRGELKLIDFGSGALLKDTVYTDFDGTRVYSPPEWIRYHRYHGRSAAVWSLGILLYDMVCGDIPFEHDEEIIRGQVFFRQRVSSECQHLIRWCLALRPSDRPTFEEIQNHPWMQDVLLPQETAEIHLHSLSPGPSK
Chain of Ribosomal protein S6 kinase alpha-6 (Homo sapiens) (Q9UK32 whole entry): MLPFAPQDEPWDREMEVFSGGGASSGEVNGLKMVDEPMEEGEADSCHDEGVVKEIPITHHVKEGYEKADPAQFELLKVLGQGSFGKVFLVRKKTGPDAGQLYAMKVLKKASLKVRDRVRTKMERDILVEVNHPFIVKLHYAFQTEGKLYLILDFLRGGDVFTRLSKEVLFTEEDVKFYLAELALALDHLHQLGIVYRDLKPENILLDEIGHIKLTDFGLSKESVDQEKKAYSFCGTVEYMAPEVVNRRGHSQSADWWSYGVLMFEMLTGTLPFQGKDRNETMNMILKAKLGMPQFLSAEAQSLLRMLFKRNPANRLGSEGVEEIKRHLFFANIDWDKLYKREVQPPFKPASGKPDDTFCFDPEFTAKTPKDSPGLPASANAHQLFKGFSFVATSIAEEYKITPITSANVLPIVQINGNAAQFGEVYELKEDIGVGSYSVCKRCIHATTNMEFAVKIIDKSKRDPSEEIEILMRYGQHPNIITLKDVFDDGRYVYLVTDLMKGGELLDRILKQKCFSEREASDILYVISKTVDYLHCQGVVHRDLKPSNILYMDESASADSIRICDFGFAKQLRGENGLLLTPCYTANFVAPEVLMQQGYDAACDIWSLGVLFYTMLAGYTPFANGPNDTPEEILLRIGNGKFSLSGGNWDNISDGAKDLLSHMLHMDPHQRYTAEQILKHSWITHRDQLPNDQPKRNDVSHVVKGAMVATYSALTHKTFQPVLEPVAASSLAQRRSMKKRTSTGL
Chain of Cyclin-dependent kinase 1/cyclin B1 (Homo sapiens) (P06493 whole entry, looked up): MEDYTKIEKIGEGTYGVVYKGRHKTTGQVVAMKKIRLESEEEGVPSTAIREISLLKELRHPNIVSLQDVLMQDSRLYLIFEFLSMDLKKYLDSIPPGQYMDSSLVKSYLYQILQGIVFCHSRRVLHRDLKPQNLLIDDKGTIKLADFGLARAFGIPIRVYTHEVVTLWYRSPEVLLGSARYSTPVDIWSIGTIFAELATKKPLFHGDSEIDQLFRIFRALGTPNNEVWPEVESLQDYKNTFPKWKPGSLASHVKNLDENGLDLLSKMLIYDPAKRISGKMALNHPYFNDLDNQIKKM
Chain of Cyclin-dependent kinase 1/cyclin B1 (Homo sapiens) (P14635 whole entry, looked up): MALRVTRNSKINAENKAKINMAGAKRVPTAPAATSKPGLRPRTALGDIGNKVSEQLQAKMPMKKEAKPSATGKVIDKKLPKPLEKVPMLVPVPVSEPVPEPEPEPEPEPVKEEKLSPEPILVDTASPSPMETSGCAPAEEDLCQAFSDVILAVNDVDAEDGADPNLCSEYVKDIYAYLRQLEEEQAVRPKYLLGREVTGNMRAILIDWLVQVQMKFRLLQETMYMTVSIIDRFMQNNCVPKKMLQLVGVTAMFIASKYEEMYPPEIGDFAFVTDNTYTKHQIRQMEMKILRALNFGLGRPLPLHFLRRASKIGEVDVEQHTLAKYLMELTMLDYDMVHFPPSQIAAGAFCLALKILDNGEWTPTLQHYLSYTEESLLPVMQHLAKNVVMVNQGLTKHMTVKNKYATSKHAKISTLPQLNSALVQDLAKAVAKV
Chain of Tyrosine-protein kinase FRK (Homo sapiens) (P42685 whole entry): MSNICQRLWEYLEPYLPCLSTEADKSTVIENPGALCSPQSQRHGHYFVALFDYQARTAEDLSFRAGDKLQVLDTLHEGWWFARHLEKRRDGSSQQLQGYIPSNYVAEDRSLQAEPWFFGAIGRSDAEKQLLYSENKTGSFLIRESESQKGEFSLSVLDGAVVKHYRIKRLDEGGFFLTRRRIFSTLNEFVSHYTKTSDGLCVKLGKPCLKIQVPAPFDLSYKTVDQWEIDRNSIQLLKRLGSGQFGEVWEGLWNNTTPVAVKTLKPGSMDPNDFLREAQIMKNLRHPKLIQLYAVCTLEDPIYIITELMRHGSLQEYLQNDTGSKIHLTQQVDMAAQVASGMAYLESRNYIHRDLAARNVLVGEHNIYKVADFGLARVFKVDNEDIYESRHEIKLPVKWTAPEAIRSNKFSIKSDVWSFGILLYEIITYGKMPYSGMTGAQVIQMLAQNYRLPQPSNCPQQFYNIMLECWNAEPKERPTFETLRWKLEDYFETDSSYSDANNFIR

In the case of `Nc1n[nH]c2nnc(-c3c(-c4ccccc4)nn4ccccc34)cc12`, the inhibition (commonly the change of the read-out against control, counted positive when it falls) is 9.79% in assay [1]; -3.37% in assay [2]; -1.32% in assay [3]; -0.39% in assay [4]; 31.6% in assay [5]; 4.48% in assay [6]. Also, the inhibition in assay [7] came to 0.02%; in assay [8], 12.8%.
For `Oc1n[nH]c2nnc(-c3c(-c4ccccc4)nn4ccccc34)cc12`, the inhibition in assay [1] is 9.98%; in assay [2] it was -1.38%; in assay [3], -4.01%; in assay [4] it was 0.66%; in assay [5], -0.59%; in assay [6], -2.71%. In addition, the values for the inhibition in assay [7] and in assay [8] were 0.86% and -0.62%, respectively.
